This experiment addresses (Homo sapiens, UniProt P43220). Nature of the experiment: h-GLP-1 activity assay (cAMP HTRF, HEK293 cells with stable expression of human GLP-1). In kind it is cell-based. Particulars: relative EC50, 10 nM human GLP-1 set as 100% response, 30 min at 37° C. The method, boiled down: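 cAMP accumulation (HTRF, 665/615 nm, interpolated from standard curve) after 30 min, 37 °C compound treatment of stable human GLP-1 HEK293 cells with 0.5 mM IBMX. EC50 by 4-parameter regression, reported relative to 10 nM GLP-1 (7-37) as full response.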
Background: Time-resolved FRET reads energy transfer from a long-lived donor to a nearby acceptor.

Some results are limits rather than exact numbers.

(Homo sapiens, UniProt P43220), sequence (P43220 24-463): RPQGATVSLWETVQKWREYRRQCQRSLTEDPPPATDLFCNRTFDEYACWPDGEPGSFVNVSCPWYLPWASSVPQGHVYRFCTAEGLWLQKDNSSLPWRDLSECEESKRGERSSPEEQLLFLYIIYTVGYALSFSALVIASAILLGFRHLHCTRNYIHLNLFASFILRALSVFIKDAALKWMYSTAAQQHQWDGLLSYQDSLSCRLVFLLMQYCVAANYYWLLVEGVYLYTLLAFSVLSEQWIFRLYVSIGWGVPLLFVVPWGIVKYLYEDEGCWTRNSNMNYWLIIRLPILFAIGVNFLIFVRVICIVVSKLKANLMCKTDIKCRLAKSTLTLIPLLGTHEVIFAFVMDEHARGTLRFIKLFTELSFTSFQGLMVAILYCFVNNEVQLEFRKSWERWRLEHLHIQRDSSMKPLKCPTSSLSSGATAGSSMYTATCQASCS

On to `C[C@H]1c2c(nn(-c3ccc(F)c(C4CC4)c3)c2-n2ccn(-c3ccc4c(cnn4C)c3F)c2=O)CCN1C(=O)c1c(Cl)c2cc([C@@H]3CCOC(C)(C)C3)ccn2c1C1(c2noc(=O)[nH]2)CC1` (single isomer, unassigned) [Compound 88], for which the EC50 is more than 100 nM.

In turn, `C[C@H]1c2c(nn(-c3ccc(F)c(C4CC4)c3)c2-n2ccn(-c3ccc4c(cnn4C)c3F)c2=O)CCN1C(=O)c1cn2nc([C@H]3CCOC(C)(C)C3)ccc2c1C1(c2noc(=O)[nH]2)CC1` (single isomer, unassigned) [Compound 89] came in with an EC50 of 20 to 100 nM.

For `C[C@H]1c2c(nn(-c3ccc(F)c(C4CC4)c3)c2-n2ccn(-c3ccc4c(cnn4C)c3F)c2=O)CCN1C(=O)c1cn2cc([C@@H]3CCOC(C)(C)C3)cc(F)c2c1C1(c2noc(=O)[nH]2)CC1` (single isomer, unassigned) [Compound 92], the EC50 is less than 20 nM.

`C[C@H]1c2c(nn(-c3ccc(F)c(C4CC4)c3)c2-n2ccn(-c3ccc4c(cnn4C)c3F)c2=O)CCN1C(=O)c1cc2cc([C@H]3CCOC(C)(C)C3)c(F)cn2c1C1(c2noc(=O)[nH]2)CC1` (single isomer, unassigned) [Compound 93]: the half-maximal effective concentration (EC50) was less than 20 nM.

The compound `C[C@H]1c2c(nn(-c3ccc(F)c(C4CC4)c3)c2-n2ccn(-c3ccc4c(cnn4C)c3F)c2=O)CCN1C(=O)c1cc2cc([C@@H]3CCOC(C)(C)C3)c(F)cn2c1C1(c2noc(=O)[nH]2)CC1` (single isomer, unassigned) [Compound 94] returned an EC50 of 20 to 100 nM.

Regarding `C[C@H]1c2c(nn(-c3ccc(F)c(C4CC4)c3)c2-n2ccn(-c3ccc4c(cnn4C)c3F)c2=O)CCN1C(=O)c1cc2c(F)c([C@H]3CCOC(C)(C)C3)ccn2c1C1(c2noc(=O)[nH]2)CC1` (single isomer, unassigned) [Compound 95], the EC50 was more than 100 nM.

On to `C[C@H]1c2c(nn(-c3ccc(F)c(C4CC4)c3)c2-n2ccn(-c3ccc4c(cnn4C)c3F)c2=O)CCN1C(=O)c1cc2c(F)c([C@@H]3CCOC(C)(C)C3)ccn2c1C1(c2noc(=O)[nH]2)CC1` (single isomer, unassigned) [Compound 96], for which the EC50 is less than 20 nM.

As for `C[C@H]1c2c(nn(-c3ccc(F)c(C4CC4)c3)c2-n2ccn(-c3ccc4c(cnn4C)c3F)c2=O)CCN1C(=O)c1nc2cc([C@H]3CCOC(C)(C)C3)ccn2c1C1(c2noc(=O)[nH]2)CC1` (single isomer, unassigned) [Compound 97], the half-maximal effective concentration (EC50) was more than 100 nM.

With `C[C@H]1c2c(nn(-c3ccc(F)c(C4CC4)c3)c2-n2ccn(-c3ccc4c(cnn4C)c3F)c2=O)CCN1C(=O)c1nc2cc([C@@H]3CCOC(C)(C)C3)ccn2c1C1(c2noc(=O)[nH]2)CC1` (single isomer, unassigned) [Compound 98], the EC50 lay within 20 to 100 nM.

On to `C[C@H]1c2c(nn(-c3ccc(F)c(C4CC4)c3)c2-n2ccn(-c3ccc4c(cnn4C)c3F)c2=O)CCN1C(=O)c1cc2cc([C@H]3CCOC(C)(C)C3)cnn2c1C1(c2noc(=O)[nH]2)CC1` (single isomer, unassigned) [Compound 99], for which the EC50 was less than 20 nM.

`C[C@H]1c2c(nn(-c3ccc(F)c(C4CC4)c3)c2-n2ccn(-c3ccc4c(cnn4C)c3F)c2=O)CCN1C(=O)c1cc2cc([C@@H]3CCOC(C)(C)C3)cnn2c1C1(c2noc(=O)[nH]2)CC1` (single isomer, unassigned) [Compound 100] had an EC50 of 20 to 100 nM.

Consider `C[C@H]1c2c(nn(-c3ccc(F)c(C4CC4)c3)c2-n2ccn(-c3ccc4c(cnn4C)c3F)c2=O)CCN1C(=O)c1cc2nc([C@H]3CCOC(C)(C)C3)ccn2c1C1(c2noc(=O)[nH]2)CC1` (single isomer, unassigned) [Compound 101], for which the EC50 is more than 100 nM.

Compound `C[C@H]1c2c(nn(-c3ccc(F)c(C4CC4)c3)c2-n2ccn(-c3ccc4c(cnn4C)c3F)c2=O)CCN1C(=O)c1cc2nc([C@@H]3CCOC(C)(C)C3)ccn2c1C1(c2noc(=O)[nH]2)CC1` (single isomer, unassigned) [Compound 102] registered a half-maximal effective concentration (EC50) of less than 20 nM.

As for `Cc1cc(-n2nc3c(c2-n2ccn(-c4ccc5c(cnn5C)c4F)c2=O)[C@H](C)N(C(=O)c2cn4cc(N5CCOC(C)(C)C5)ccc4c2C2(c4noc(=O)[nH]4)CC2)CC3)cc(C)c1F` [Compound 1, (S)-3-(1-(6-(2,2-dimethylmorpholino)-2-(3-(3-(4-fluoro-1-methyl-1H-indazol-5-yl)-2-oxo-2,3-dihydro-1H-imidazol-1-yl)-2-(4-fluoro-3,5-dimethylphenyl)-4-methyl-4,5,6,7-tetrahydro-2H-pyrazolo[4,3-c]pyridine-5-carbonyl)indolizin-1-yl)cyclopropyl)-1,2,4-oxadiazol-5(4H)-one], the concentration giving a half-maximal response (EC50) is less than 20 nM.

The compound `Cc1cc(-n2nc3c(c2-n2ccn(-c4ccc5c(cnn5C)c4F)c2=O)[C@H](C)N(C(=O)c2cn4cc(-c5ccnc(C(F)(F)F)c5)ccc4c2C2(c4noc(=O)[nH]4)CC2)CC3)cc(C)c1F` [Compound 2, (S)-3-(1-(2-(3-(3-(4-fluoro-1-methyl-1H-indazol-5-yl)-2-oxo-2,3-dihydro-1H-imidazol-1-yl)-2-(4-fluoro-3,5-dimethylphenyl)-4-methyl-4,5,6,7-tetrahydro-2H-pyrazolo[4,3-c]pyridine-5-carbonyl)-6-(2-(trifluoromethyl)pyridin-4-yl)indolizin-1-yl)cyclopropyl)-1,2,4-oxadiazol-5(4H)-one] displayed an EC50 of less than 20 nM.

For `Cc1cc(-n2nc3c(c2-n2ccn(-c4ccc5c(cnn5C)c4F)c2=O)[C@H](C)N(C(=O)c2cn4cc(-c5ccnc(C(F)(F)F)c5)ccc4c2Cc2noc(=O)[nH]2)CC3)cc(C)c1F` [Compound 15, (S)-3-((2-(3-(3-(4-fluoro-1-methyl-1H-indazol-5-yl)-2-oxo-2,3-dihydro-1H-imidazol-1-yl)-2-(4-fluoro-3,5-dimethylphenyl)-4-methyl-4,5,6,7-tetrahydro-2H-pyrazolo[4,3-c]pyridine-5-carbonyl)-6-(2-(trifluoromethyl)pyridin-4-yl)indolizin-1-yl)methyl)-1,2,4-oxadiazol-5(4H)-one], the EC50 is less than 20 nM.

In turn, `Cc1cc(-n2nc3c(c2-n2ccn(-c4ccc5c(cnn5C)c4F)c2=O)CN(C(=O)c2cc4cc(C5CCOCC5)ccc4n2-c2ccccc2-c2noc(=O)[nH]2)CC3)cc(C)c1F` [Compound 37, 3-(2-(2-(3-(3-(4-fluoro-1-methyl-1H-indazol-5-yl)-2-oxo-2,3-dihydro-1H-imidazol-1-yl)-2-(4-fluoro-3,5-dimethylphenyl)-4,5,6,7-tetrahydro-2H-pyrazolo[4,3-c]pyridine-5-carbonyl)-5-(tetrahydro-2H-pyran-4-yl)-1H-indol-1-yl)phenyl)-1,2,4-oxadiazol-5(4H)-one] returned an EC50 of more than 100 nM.

In turn, `Cn1ncc2c(F)c(-n3ccn(-c4c(-c5ccc(F)cc5)nn5c4CN(C(=O)c4cc6cc(C7CCOCC7)ccc6n4-c4ccccc4C(=O)O)CC5)c3=O)ccc21` [Compound 55, 2-(2-(3-(3-(4-fluoro-1-methyl-1H-indazol-5-yl)-2-oxo-2,3-dihydro-1H-imidazol-1-yl)-2-(4-fluorophenyl)-4,5,6,7-tetrahydropyrazolo[1,5-a]pyrazine-5-carbonyl)-5-(tetrahydro-2H-pyran-4-yl)-1H-indol-1-yl)benzoic acid] registered an EC50 of more than 100 nM.

Usually EC50 stands for the concentration needed to bring the measured effect to its halfway point. The low end stands for greater potency, the high end for weaker potency.

(Values after patent US12037339B2, “Substituted imidazoles as GLP-1 receptor agonists” (Eccogene Inc., priority 2020, dated 2024).)
